Counter-ions that a name gives are not always drawn.
How the values were obtained:
[1] = system: experimental autoimmune uveitis; details: cited from earlier work
EAN animal model = details: cited from earlier work
kidneys = details: given prior to disease induction; cited from earlier work
blood-brain barrier = details: ischemia reperfusion model in the rat; cited from earlier work
brain = details: following hemorrhage; cited from earlier work
[2] = target: MMP-9 (HNG; human neutrophil gelatinase) (Homo sapiens, UniProt P14780); experiment: Enzyme kinetic assay, inhibition of MMP-9; format: biochemical; details: read-out: Ki (value in parentheses), HNG MMP-9
From the text: (§1) The following protocol was used to obtain the data found in the following table. Materials: The fluorescent peptide substrates for matrix metalloproteinases (MMPs) used were purchased from Bachem Chem. Co. The metal salts and Brij-35 were purchased from Fisher Scientific Inc. All other chemicals were purchased from Sigma-Aldrich Chem. Co. The sources and biochemical characterizations of multiple MMPs, including MMP-1/human fibroblast collagenase (HFC), MMP-2/human fibroblast gelatinase (HFG), MMP-8/human neutrophil collagenase (HNC), and MMP-9/human neutrophil gelatinase (HNG), MMP-7/human matrilysin (MLN), MMP-3/human fibroblast stromelysin-1 (HFS), human recombinant catalytic domain of membrane-type 1 matrix metalloproteinase (cdMT1-MMP), catalytic domain of MMP-12/metalloelastase (cdMET), and MMP-26/human endometase (EDM) were described previously (Sang, Q. X., Birkedal-Hansen, H., and Van Wart, H. E. Proteolytic and non-proteolytic activation of human neutrophil progelatinase B. Biochim. Biophys. Acta. 1995; 1251, 99-108; Sang, Q. A., Bodden, M. K., and Windsor, L. J. Activation of human progelatinase A by collagenase and matrilysin: activation of procollagenase by matrilysin. J. Protein. Chem. 1996; 15, 243-253; Li, H., Bauzon, D. E., Xu, X., Tschesche, H., Cao, J., and Sang, Q.-X. A. Immunological characterization of cell-surface and soluble forms of membrane type 1 matrix metalloproteinase in human breast cancer cells and in fibroblasts. Molec. Carcinog. 1998; 22, 84-94; Park, H. I., Ni, J., Gerkema, F. E., Liu, D., Belozerov, V. E., and Sang, Q.-X. A. Identification and characterization of human endometase (Matrix metalloproteinase-26) from endometrial tumor. J. Biol. Chem., 2000; 275, 20540-20544). The active concentrations of MMPs were determined by titration with GM6001, a tight-binding MMP inhibitor, as described previously (Park, H. I., Turk, B. E., Gerkema, F. E., Cantley, L. C., and Sang, Q.-X. A. Peptide substrate specificities and protein cleavage sites of human endometase/matrilysin-2/matrix metalloproteinase-26. J. Biol. Chem. 2002; 277, 35168-35175).
(§2) The active inhibitor concentrations were estimated by titrating the mercapto group with 5,5′-dithiobis(2-nitrobenzoic acid) (DTNB; Ellman's reagent) as described previously (Ellman, G. L. A colorimetric method for determining low concentrations of mercaptans. Arch. Biochem. Biophys. 1958; 74, 443-450; Ellman, G. L. Tissue sulfhydryl groups. Arch. Biochem. Biophys. 1959; 82, 70-77; Riddles, P. W., Blakeley, R. L., and Zerner, B. Ellman's reagent: 5,5′-dithiobis(2-nitrobenzoic acid)—a reexamination. Anal. Biochem. 1979; 94, 75-81). Briefly, the reaction of DTNB with the mercapto group produces 2-nitro-5-thiobenzoic acid (TNB). The concentration of TNB is then measured by monitoring the absorbance at 412 nm. Cysteine was used to generate the standard curve with a molar extinction coefficient of 14,000±500 M^−1 cm^−1, which is close to the value in the literature (Riddles, P. W., Blakeley, R. L., and Zerner, B. Ellman's reagent: 5,5′-dithiobis(2-nitrobenzoic acid)—a reexamination. Anal. Biochem. 1979; 94, 75-81).
(§3) The substrate Mca-PLGLDpaAR-NH2 was used to measure inhibition constants (Knight, C. G., Willenbrock. F., and Murphy, G. A novel coumarin-labelled peptide for sensitive continuous assays of the matrix metalloproteinases. FEBS Lett. 1992; 296, 263-266). Enzymatic assays were performed at 25° C. in 50 mM HEPES buffer at pH 7.5 in the presence of 10 mM CaCl2, 0.2 M NaCl, and 0.01% or 0.05% Brij-35 with substrate concentrations of 1 μM. The release of product was monitored by measuring fluorescence (excitation and emission wavelengths of 328 nm and 393 nm, respectively) with a Perkin Elmer Luminescence Spectrophotometer LS 50B connected to a temperature controlled water bath. All stock solutions of inhibitors were in dimethyl sulfoxide. […]

[3] = target: T1, MMP-2 (HFG; human fibroblast gelatinase) (Homo sapiens, UniProt P08253); experiment: Enzyme kinetic assay, inhibition of MMP-2; format: biochemical; details: read-out: Ki (value in parentheses), HFG MMP-2
T1 sequence (P08253 110-660): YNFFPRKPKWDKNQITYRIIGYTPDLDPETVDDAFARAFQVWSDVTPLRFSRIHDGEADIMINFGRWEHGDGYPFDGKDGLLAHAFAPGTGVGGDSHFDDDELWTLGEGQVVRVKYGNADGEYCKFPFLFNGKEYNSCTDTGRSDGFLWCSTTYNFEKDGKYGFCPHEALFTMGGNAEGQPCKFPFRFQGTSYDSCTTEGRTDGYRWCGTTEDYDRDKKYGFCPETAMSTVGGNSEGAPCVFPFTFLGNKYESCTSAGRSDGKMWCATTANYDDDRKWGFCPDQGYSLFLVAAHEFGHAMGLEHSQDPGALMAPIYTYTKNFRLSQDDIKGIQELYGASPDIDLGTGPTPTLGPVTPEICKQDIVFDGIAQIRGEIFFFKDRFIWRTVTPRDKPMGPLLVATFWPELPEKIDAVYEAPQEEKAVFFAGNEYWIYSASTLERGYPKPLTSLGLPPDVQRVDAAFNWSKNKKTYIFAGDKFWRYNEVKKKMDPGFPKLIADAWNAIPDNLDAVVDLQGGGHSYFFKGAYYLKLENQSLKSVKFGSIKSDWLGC
From the text: as §1, §2, §3

[4] = target: MMP-3 (HFS; human fibroblast stromelysin-1) (Homo sapiens, UniProt P08254); experiment: Enzyme kinetic assay, inhibition of MMP-3; format: biochemical; details: read-out: Ki (value in parentheses), HFS MMP-3
From the text: as §1, §2, §3

[5] = target: T2, MMP-1 (HFC; human fibroblast collagenase) (Homo sapiens, UniProt P03956); experiment: Enzyme kinetic assay, inhibition of MMP-1; format: biochemical; details: 25° C., pH 7.5, substrate 1 μM; read-out: IC50 (value without parentheses), HFC MMP-1
T2 sequence (P03956 100-469): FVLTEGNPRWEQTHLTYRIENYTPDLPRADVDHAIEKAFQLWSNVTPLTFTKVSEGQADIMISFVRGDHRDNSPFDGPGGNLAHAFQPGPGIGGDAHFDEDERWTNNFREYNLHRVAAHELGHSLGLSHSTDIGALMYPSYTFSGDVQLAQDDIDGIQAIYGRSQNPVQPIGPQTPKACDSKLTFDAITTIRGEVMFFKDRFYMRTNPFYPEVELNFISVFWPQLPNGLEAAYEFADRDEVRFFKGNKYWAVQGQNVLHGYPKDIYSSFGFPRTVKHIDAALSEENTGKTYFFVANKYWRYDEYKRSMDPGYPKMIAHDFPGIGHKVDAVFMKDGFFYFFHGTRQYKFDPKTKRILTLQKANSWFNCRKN
From the text: as §1, §2, §3

stented arteries = details: compared to placebo; cited from earlier work
EAE animal model = details: administered daily from disease induction or from onset of clinical signs; cited from earlier work
insulin resistance = details: mouse model of insulin resistance; cited from earlier work
lethal acute GVHD = details: mouse model of lethal acute GVHD; cited from earlier work

MMP-9 (HNG; human neutrophil gelatinase), sequence (P14780 94-707): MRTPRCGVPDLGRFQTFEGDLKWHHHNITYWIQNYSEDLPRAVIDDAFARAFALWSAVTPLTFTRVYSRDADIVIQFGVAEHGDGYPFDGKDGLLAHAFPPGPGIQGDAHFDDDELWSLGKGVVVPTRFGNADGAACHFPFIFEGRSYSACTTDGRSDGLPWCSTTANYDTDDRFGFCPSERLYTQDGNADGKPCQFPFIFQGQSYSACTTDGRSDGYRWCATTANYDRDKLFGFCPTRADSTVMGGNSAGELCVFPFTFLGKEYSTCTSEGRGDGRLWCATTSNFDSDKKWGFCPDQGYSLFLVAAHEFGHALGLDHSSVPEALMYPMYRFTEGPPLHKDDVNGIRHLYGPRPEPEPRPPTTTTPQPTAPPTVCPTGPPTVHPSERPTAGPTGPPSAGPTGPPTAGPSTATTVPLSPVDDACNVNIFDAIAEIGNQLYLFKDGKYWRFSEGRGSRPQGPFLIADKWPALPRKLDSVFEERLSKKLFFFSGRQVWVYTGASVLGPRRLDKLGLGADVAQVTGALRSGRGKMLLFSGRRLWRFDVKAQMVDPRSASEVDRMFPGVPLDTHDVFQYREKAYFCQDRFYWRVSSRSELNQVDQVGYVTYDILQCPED
MMP-3 (HFS; human fibroblast stromelysin-1), sequence (P08254 100-477): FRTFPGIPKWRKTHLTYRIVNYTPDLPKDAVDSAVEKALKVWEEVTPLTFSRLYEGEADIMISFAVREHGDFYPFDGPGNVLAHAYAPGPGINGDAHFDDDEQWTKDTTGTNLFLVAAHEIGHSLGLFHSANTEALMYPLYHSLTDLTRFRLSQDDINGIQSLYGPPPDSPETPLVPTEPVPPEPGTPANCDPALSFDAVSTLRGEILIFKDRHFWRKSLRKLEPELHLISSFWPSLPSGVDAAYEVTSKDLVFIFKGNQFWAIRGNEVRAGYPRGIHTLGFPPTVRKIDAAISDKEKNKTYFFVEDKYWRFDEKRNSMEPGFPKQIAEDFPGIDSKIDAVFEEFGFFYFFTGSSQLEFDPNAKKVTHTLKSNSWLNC

Row | Ki [2] [µM] | Ki [3] [µM] | Ki [4] [µM] | IC50 [5] [µM] | SMILES | other results
1 |  |  |  |  | C=CC[C@H](C(=O)NO)[C@@H](CC(C)C)C(=O)N[C@@H](Cc1ccccc1)C(=O)NC [BB-1101] | retinal damage [1]: shown to reduce retinal damage; EAN symptoms, inflammation, demyelination, weight loss (EAN animal model; given from the initiation of EAN): prevented the development of symptoms and reduced inflammation, demyelination, and weight loss; EAN disease severity (EAN animal model; given from the onset of symptoms): significantly reduced disease severity; inflammatory response and damage (kidneys): significantly reduced; early phases of blood-brain barrier leakage (blood-brain barrier): reduces; secondary brain edema (brain): reduces
2 | 0.21 | 0.038 | 5.9 | 50 | O=S(=O)(N[C@H]1CNC[C@@H]1S)c1ccc(Oc2ccccc2)cc1 [Example 10, (3S,4S)-3-(4-Phenoxybenzenesulfonamido)-4-mercaptopyrrolidine Hydrochloride] | 
3 | 0.23 | 0.049 | 1.6 | 6.3 | O=S(=O)(N[C@@H]1CNC[C@H]1S)c1ccc(Oc2ccccc2)cc1 [Example 11, (3R,4R)-3-(4-Phenoxybenzenesulfonamido)-4-mercaptopyrrolidine Hydrochloride] | 
4 | 0.013 | 0.01 | 1.7 |  | NC(=O)N1C[C@H](NS(=O)(=O)c2ccc(Oc3ccccc3)cc2)[C@@H](S)C1 [Example 12, (3S,4S)—N-Carbamoyl-3-(4-phenoxybenzene-sulfonamido)-4-mercaptopyrrolidine] | 
5 | 3.1 | 1.8 | 5.4 | ~125 | O=C(OCc1ccccc1)N1C[C@H](S)[C@H](NS(=O)(=O)c2ccc(Oc3ccccc3)cc2)C1 [Example 13, (3R,4S)—N-Cbz-3-(4-Phenoxybenzenesulfonamido)-4-mercaptopyrrolidine] | 
6 | 2.2 | 0.8 | 3.4 | > 3 | O=C(OCc1ccccc1)N1C[C@@H](S)[C@@H](NS(=O)(=O)c2ccc(Oc3ccccc3)cc2)C1 [Example 14, (3S,4R)—N-Cbz-3-(4-Phenoxybenzenesulfonamido)-4-mercaptopyrrolidine] | 
7 |  |  |  |  | CNC(=O)[C@H](Cc1c[nH]c2ccccc12)NC(=O)[C@@H](CC(=O)NO)CC(C)C [GM6001] | intimal hyperplasia and collagen content (stented arteries): significantly inhibited; lumen area (stented arteries): increasing the lumen area; rates of proliferation (stented arteries): without affecting the rates of proliferation; clinical signs of EAE (EAE animal model): suppressed the development or reversed clinical signs of EAE in a dose-dependent way
8 |  |  |  |  | CNC(=O)[C@@H](NC(=O)[C@H](CC(C)C)[C@H](C)C(=O)NO)c1ccccc1 [KB-R7785] | plasma glucose and insulin levels (insulin resistance): significant decrease; mortality (lethal acute GVHD): reduced mortality

— patent US8404866B2, “Substituted heterocyclic mercaptosulfonamide metalloprotease inhibitors” (Florida State University Research Foundation, priority 2008, dated 2013)
